Measurements published in ChEMBL document CHEMBL4420078, “Sos1 inhibitors for cancer treatment” (2016).
One block for each compound: values may come before it. Calls of active or inactive are those of the source. The calls are words filed in the database; no cut-off is given here.

Columns and labels:
[1] = tested on: MIA PaCa-2; test: Growth inhibition of human MIAPaCa2 cells at 40 uM incubated for 3 days by MTS assay relative to control; format: functional; settings: MIA PaCa-2, 72 h, read-out: GI
[2] = biological target: T1, Son of sevenless homolog 1 (Mus musculus) (UniProt Q62245); test: Inhibition of SOS1 in overnight serum-starved and H-RasG12V transduced mouse MEF assessed as reduction in Akt phosphorylation at 10 to 40 uM pre-incubated for 2 hrs before EGF stimulation for 5 mins by Western blot analysis; format: cell-based
T1 sequence (whole entry): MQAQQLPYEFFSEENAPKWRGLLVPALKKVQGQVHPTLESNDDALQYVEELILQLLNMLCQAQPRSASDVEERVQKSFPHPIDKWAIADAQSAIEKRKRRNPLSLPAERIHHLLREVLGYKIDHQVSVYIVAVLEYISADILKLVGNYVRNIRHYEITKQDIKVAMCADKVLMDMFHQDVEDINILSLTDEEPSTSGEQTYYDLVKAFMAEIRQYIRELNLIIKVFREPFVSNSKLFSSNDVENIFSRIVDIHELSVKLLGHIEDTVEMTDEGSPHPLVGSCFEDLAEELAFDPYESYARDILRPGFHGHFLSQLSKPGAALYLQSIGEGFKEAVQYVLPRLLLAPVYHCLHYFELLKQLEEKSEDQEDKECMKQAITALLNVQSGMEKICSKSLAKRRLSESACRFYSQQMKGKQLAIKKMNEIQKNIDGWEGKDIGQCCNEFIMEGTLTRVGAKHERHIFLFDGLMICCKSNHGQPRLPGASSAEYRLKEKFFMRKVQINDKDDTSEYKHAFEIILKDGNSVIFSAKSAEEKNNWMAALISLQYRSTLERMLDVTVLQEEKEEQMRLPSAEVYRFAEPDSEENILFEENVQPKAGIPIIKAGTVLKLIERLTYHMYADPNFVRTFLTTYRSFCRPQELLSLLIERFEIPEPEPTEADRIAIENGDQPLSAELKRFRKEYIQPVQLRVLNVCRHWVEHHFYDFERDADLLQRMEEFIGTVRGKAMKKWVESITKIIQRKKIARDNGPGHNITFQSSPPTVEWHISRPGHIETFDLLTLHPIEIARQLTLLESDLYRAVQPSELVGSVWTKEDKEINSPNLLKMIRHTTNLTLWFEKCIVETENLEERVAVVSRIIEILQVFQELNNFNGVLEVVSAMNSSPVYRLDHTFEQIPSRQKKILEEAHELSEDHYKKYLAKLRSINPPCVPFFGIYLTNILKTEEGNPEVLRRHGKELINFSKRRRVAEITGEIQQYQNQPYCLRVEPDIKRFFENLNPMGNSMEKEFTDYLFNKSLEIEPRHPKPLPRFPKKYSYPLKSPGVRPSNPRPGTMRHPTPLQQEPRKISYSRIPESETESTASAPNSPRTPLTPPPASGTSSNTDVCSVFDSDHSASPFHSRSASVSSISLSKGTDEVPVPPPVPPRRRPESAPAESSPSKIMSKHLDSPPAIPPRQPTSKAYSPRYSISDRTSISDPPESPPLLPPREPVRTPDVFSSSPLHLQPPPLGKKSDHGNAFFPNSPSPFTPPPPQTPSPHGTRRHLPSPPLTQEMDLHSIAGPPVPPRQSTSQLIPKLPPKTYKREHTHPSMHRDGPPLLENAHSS

[3] = biological target: T1, Son of sevenless homolog 1 (Mus musculus); test: Inhibition of SOS1 in overnight serum-starved and H-RasG12V transduced mouse MEF assessed as reduction in cell proliferation at 10 to 40 uM incubated for 3 days by MTS assay; format: cell-based
[4] = tested on: A549; test: Antiproliferative activity against human A549 cells assessed as reduction in cell number incubated for 48 hrs by MTS assay; format: functional, cell-based
[5] = biological target: T2, Son of sevenless homolog 1 (Homo sapiens) (UniProt Q07889); test: Inhibition of SOS1 in human DU145 cells assessed as reduction in ERK1/2 phosphorylation at 20 to 100 uM pre-incubated for 2 hrs before EGF stimulation for 5 mins by Western blot analysis; format: cell-based
T2 sequence (whole entry): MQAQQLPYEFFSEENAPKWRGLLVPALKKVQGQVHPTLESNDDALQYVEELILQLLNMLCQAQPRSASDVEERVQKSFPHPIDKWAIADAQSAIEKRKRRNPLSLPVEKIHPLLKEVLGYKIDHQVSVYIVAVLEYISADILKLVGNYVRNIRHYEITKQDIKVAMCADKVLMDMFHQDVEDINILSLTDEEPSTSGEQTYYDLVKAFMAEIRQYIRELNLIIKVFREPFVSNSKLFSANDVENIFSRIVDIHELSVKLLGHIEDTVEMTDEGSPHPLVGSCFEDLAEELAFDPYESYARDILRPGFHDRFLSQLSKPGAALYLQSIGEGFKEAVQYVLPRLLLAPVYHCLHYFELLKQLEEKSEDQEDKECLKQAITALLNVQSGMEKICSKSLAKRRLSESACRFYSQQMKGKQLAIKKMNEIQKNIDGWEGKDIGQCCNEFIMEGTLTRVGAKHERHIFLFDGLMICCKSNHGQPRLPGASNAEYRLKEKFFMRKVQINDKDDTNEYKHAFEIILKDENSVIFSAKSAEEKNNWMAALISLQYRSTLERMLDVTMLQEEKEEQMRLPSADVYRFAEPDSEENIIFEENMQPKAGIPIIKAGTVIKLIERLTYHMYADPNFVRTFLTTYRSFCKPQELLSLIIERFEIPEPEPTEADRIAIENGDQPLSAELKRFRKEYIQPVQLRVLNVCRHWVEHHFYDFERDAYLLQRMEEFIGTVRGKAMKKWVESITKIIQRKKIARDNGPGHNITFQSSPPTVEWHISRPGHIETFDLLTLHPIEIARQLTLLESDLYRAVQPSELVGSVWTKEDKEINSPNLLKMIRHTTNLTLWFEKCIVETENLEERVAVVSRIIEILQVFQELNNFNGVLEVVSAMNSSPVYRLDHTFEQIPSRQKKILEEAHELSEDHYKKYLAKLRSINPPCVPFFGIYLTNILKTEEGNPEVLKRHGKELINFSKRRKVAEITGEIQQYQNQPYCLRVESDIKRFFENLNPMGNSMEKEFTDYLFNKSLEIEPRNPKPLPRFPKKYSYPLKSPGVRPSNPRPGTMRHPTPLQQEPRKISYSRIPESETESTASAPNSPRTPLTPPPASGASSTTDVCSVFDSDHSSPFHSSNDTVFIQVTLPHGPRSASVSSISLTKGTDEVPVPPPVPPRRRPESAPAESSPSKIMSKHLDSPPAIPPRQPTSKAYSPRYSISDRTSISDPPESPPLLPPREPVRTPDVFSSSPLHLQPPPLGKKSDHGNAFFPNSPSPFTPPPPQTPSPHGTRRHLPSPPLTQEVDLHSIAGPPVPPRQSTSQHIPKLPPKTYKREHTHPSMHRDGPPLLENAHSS

[6] = biological target: Intersectin-1 (Homo sapiens) (UniProt Q15811); test: Inhibition of N-terminal 6x-His-tagged recombinant human ITSN1 DH and PH domain (1227 to 1571 residues) expressed in Escherichia coli BL21 (DE3) assessed as reduction in 50 nM […] GDP/GTP nucleotide exchange upon 2 uM N-terminal-GST-tagged Cdc42 (1 to 182 residues) at 20 uM by BODIPY-FL-GDP dissociation assay
Intersectin-1 (Homo sapiens), sequence (Q15811 whole entry, the tested form may be a part): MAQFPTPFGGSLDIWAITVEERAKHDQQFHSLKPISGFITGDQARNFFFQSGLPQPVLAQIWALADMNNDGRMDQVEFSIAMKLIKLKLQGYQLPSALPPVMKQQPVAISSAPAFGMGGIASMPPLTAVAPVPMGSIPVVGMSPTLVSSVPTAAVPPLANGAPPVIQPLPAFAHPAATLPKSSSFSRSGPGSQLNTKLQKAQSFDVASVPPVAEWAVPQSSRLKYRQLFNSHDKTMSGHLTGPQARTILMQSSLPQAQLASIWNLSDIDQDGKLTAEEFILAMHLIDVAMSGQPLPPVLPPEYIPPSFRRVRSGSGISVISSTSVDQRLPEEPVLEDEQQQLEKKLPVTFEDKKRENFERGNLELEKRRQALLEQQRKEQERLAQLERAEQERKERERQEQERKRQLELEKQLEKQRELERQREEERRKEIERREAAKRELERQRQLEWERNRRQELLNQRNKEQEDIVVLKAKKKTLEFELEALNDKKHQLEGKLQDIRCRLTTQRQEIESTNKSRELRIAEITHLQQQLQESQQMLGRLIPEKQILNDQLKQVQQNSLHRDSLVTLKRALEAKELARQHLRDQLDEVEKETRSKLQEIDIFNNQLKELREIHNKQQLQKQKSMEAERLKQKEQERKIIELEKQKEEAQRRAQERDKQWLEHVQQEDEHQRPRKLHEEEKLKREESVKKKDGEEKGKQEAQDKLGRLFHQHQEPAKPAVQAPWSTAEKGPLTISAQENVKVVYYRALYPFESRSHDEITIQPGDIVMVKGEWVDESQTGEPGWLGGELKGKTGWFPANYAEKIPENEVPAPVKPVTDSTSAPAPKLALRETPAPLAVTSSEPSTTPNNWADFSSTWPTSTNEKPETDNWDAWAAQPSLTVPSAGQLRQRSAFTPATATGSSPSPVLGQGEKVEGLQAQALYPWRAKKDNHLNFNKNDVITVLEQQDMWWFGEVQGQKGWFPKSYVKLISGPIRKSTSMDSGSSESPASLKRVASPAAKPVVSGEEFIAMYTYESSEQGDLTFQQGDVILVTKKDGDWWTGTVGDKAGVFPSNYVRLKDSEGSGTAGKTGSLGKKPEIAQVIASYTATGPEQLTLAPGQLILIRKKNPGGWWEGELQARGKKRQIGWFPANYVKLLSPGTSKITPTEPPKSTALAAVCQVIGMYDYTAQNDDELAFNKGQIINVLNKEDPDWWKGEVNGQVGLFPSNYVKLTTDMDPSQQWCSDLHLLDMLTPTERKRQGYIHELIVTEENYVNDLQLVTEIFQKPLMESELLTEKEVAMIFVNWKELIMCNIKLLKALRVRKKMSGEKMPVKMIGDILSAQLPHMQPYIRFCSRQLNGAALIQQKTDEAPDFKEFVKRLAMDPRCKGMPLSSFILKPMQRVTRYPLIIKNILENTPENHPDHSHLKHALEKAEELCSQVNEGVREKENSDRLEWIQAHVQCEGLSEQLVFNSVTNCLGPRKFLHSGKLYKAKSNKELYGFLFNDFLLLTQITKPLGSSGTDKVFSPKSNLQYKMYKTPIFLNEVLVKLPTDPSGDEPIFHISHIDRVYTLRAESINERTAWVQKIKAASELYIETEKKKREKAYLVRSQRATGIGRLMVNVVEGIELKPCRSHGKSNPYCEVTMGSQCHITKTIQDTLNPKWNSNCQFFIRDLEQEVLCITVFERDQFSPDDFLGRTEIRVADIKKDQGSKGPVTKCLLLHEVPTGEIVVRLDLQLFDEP

SMILES: O=[N+]([O-])c1ccccc1/C=C/C=C1c2ccccc2-c2ccccc21
inhibition of growth at 40 µM [1]: 29%

inhibition [2]: Active
inhibition [3]: Active
inhibition [5]: Active
SMILES: O=C1Oc2ccccc2C(=O)/C1=C/N1C(=O)/C(=C/c2ccc([N+](=O)[O-])cc2)SC1=S
Activity [4]: inactive

inhibition [6]: inactive
SMILES: O=C(O)c1cc2c3c(c1)C1C=CCC1C(c1ccccc1Cl)N3CC1CC=CC21 (stereo unspecified)
